Experimental data as given in ChEMBL document CHEMBL1255552, “Synthesis and SAR of 2-aryl-3-aminomethylquinolines as agonists of the bile acid receptor TGR5” (Bioorg Med Chem Lett, 2010).

Columns and labels:
[1] = Half life in mouse at 30 mg/kg, po; format: ADME, organism-based; parameters: dose 30 mg/kg, route oral; conditions: in vivo
[2] = test system: Mus musculus; experiment: (§1) Oral bioavailability in mouse at 30 mg/kg; format: ADME, organism-based; conditions: in vivo
[3] = test system: Mus musculus; experiment: (§2) AUC in mouse at 30 mg/kg, po; format: ADME, organism-based, Plasma; parameters: dose 30 mg/kg, route oral; conditions: in vivo
[4] = Cmax in mouse at 30 mg/kg, po; format: ADME, organism-based; parameters: dose 30 mg/kg, route oral; conditions: in vivo
[5] = Volume of distribution in mouse at 3 mg/kg, iv; format: ADME, organism-based; parameters: dose 3 mg/kg, route intravenous; conditions: in vivo
[6] = as §1; format: ADME, organism-based; conditions: in vivo
[7] = as §2; format: ADME, organism-based, Plasma; parameters: dose 30 mg/kg, route oral; conditions: plasma
[8] = Clearance in mouse at 3 mg/kg, iv; format: ADME, organism-based; parameters: dose 3 mg/kg, route intravenous; conditions: in vivo

| SMILES | half-life [1] | F [2] | AUC [3] | Cmax [4] | Vd [5] | bioavailability [6] | AUC [7] | clearance [8] |
| --- | --- | --- | --- | --- | --- | --- | --- | --- |
| Oc1ccc2cc(CNCCc3ccc(Br)cc3)c(-c3ccsc3)nc2c1 | 4.4 h | 9% | 400 ng·h/mL | 370 ng/mL | 2.4 L/kg | – | – | – |
| COc1cc2nc(-c3ccsc3)c(CNCCc3ccc(Br)cc3)cc2cc1O | 7.7 h | – | – | 500 ng/mL | 1.4 L/kg | 10% | 860 ng·h/mL | 29 mL/min/kg |
